Assay results taken from publication PMC3890692 (ACS medicinal chemistry letters, 2013).

What was measured:
B. anthracis (Sterne) = conditions: mice infected with a lethal dose of B. anthracis (Sterne); cited from earlier work
[1] = Mouse pharmacokinetic study, intraperitoneal
[2] = following a single dose, i.p., mice

**Q.** What does the source list for `O=C([O-])[C@H](Cc1ccccc1)N1C(=O)/C(=C\c2ccc(-c3ccc(Cl)c(Cl)c3)o2)NC1=S.[Na+]` [Compound 12-ES-Na]?
**A.** prevention of mortality / block of infection (B. anthracis (Sterne)): can effectively block Bacillus anthracis infection in mice; Cl ([1]; Group 1, 25 mg/kg i.p., CD-1 female mice): 2.33 mL/min/kg; Cl ([1]; Group 2, 50 mg/kg i.p., CD-1 female mice): 1.67 mL/min/kg; Cl ([1]; Group 3, 100 mg/kg i.p., CD-1 female mice): 0.917 mL/min/kg; mortality and clinical observations ([1]; dosage below 100 mg/kg, i.p., CD-1 female mice): no mortality and no significant clinical observations; AUC relative to the MIC [1, 2]: more than 200 fold; time of concentration above MIC [1, 2]: more than 10 hours; clearance ([1]; rodent PK profile, i.p., mice): ~ 100 mL/h/kg
